Here are results for 5 compounds from article PMC5238498, “Bivalent IAP antagonists, but not monovalent IAP antagonists, inhibit TNF-mediated NF-κB signaling by degrading TRAF2-associated cIAP1 in cancer cells” (Cell Death Discovery, 2017).

SMILES strings stand for the structures.

This test deals with T1, cIAP1 BIR3 domain (Homo sapiens, UniProt Q13490).
T1 construct: gene BIRC2; isolated purified BIR3 domain
T1 sequence (Q13490 260-352 limits assumed): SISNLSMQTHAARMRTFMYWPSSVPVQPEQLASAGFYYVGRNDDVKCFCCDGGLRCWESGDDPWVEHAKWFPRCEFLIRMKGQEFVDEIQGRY
The test can be described thus: fluorescence polarization assay. Particulars: read-out: cIAP1 BIR3 binding (Ki, nmol/l). An excerpt:
fluorescence polarization assay on cIAP1 BIR3 domain
`CN[C@@H](C)C(=O)N[C@H](C(=O)N1C[C@@H](O)C[C@H]1Cc1c(-c2[nH]c3cc(F)ccc3c2C[C@@H]2C[C@H](O)CN2C(=O)[C@@H](NC(=O)[C@H](C)NC)[C@@H](C)OC)[nH]c2cc(F)ccc12)[C@@H](C)OC` [B2]: the Ki is around 1 nmol/L.
The figure for `CN[C@@H](C)C(=O)N[C@H](C(=O)N1C[C@@H](O)C[C@H]1Cc1c(-c2[nH]c3cc(F)ccc3c2C[C@@H]2C[C@H](O)CN2C(=O)[C@@H](NC(=O)[C@H](C)NC)C(C)(C)C)[nH]c2cc(F)ccc12)C(C)(C)C` [B3] is around 1 nmol/L.
The result for `CC[C@H](NC(=O)[C@H](C)NC)C(=O)N1C[C@@H](O)C[C@H]1Cc1c[nH]c2cc(F)ccc12` [M1] reads around 1 nmol/L; that for `CN[C@@H](C)C(=O)N[C@H](C(=O)N1C[C@@H](O)C[C@H]1Cc1c[nH]c2cc(F)ccc12)[C@@H](C)OC` [M2], around 1 nmol/L.
In the case of `CN[C@@H](C)C(=O)N[C@H](C(=O)N1C[C@@H](O)C[C@H]1Cc1c[nH]c2cc(F)ccc12)C(C)(C)C` [M3], the Ki is around 1 nmol/L.
